The term IC50 denotes the midpoint of a concentration-inhibition curve. As usually defined, the EC50 is the concentration giving half of the maximal effect.

Molecules are shown by their SMILES.

Test [1] concerns the target Acetylcholinesterase (Homo sapiens, UniProt P22303).
Description: Inhibition of human Acetylcholinesterase
Test [2] deals with T1, Muscarinic acetylcholine receptor M2 (Sus scrofa, UniProt P06199).
T1 sequence (P06199 whole entry): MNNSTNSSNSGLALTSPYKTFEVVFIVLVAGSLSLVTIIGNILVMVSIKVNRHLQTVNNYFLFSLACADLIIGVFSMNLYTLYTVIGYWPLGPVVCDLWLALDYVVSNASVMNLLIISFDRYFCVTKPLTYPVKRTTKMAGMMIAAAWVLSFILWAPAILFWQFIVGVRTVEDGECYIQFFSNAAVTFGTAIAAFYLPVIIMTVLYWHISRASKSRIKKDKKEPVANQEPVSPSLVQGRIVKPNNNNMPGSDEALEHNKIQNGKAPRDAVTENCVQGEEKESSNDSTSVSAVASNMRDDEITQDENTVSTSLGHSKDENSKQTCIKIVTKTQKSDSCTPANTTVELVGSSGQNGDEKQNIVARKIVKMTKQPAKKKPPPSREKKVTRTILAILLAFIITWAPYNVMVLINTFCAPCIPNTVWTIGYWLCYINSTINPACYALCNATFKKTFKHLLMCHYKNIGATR
Description: Inhibition of [3H]NMS dissociation from porcine muscarinic M2 receptor

Test [3] addresses Acetylcholinesterase (Torpedo californica, UniProt P04058).
Description: Inhibition of Torpedo californica Acetylcholinesterase
Test [4] deals with Acetylcholinesterase (Electrophorus electricus, UniProt O42275).
Sequence of Acetylcholinesterase (Electrophorus electricus, UniProt O42275) (O42275 whole entry): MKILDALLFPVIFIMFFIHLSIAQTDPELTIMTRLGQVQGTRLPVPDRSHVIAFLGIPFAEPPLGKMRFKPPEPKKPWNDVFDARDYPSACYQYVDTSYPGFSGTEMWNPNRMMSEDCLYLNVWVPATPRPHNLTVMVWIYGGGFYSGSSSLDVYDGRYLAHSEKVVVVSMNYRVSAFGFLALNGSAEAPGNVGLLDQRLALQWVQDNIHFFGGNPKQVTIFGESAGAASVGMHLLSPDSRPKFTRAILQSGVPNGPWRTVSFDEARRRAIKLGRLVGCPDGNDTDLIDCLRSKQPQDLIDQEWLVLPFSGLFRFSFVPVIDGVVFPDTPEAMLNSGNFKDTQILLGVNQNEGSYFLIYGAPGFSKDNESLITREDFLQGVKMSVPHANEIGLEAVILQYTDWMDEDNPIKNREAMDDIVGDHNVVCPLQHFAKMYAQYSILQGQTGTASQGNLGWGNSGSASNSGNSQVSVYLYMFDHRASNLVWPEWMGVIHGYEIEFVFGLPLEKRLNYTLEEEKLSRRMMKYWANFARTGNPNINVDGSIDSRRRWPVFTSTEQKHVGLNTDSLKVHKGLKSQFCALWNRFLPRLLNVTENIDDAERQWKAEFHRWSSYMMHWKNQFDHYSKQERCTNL
Description: Inhibition of Electrophorus electricus Acetylcholinesterase

Sequence of Acetylcholinesterase (Torpedo californica, UniProt P04058) (P04058 whole entry): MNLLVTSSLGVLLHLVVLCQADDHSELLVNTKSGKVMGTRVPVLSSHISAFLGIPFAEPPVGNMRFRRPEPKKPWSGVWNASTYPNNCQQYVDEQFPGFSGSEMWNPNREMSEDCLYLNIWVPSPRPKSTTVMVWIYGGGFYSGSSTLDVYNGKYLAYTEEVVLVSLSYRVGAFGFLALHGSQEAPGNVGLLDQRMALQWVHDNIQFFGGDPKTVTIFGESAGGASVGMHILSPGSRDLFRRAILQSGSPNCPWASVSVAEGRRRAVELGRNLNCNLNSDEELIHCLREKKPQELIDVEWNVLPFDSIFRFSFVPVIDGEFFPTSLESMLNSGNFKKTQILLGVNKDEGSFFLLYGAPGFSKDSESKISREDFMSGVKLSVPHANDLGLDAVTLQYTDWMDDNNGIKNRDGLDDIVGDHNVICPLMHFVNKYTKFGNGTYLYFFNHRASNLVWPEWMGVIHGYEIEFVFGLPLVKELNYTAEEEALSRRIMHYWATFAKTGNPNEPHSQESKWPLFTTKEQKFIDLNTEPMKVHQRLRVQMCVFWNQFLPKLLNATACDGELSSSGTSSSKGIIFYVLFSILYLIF
Sequence of Acetylcholinesterase (Homo sapiens, UniProt P22303) (P22303 whole entry): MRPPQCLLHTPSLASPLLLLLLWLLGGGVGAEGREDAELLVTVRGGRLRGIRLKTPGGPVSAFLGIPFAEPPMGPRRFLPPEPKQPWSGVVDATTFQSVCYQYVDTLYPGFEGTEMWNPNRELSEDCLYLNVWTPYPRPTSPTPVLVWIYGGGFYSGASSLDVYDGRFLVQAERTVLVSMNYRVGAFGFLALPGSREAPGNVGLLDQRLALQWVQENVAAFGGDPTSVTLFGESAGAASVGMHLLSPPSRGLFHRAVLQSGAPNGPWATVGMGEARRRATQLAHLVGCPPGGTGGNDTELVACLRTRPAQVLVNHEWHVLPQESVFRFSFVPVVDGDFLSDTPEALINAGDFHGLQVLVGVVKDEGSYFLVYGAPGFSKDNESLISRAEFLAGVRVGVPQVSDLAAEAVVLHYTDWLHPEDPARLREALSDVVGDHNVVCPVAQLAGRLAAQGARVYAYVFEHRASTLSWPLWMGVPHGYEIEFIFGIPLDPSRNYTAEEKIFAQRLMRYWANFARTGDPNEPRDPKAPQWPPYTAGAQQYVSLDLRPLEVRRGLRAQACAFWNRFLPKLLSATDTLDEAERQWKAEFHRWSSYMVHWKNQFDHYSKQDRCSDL

On to `CC[N+](CC)(CC)CCOc1ccc(C(=O)NCCCCCC(=O)NNc2c3c(nc4ccccc24)CCCC3)cc1`, for which the IC50 was 0.00761 µM at Acetylcholinesterase [1], 17.6 nM at Acetylcholinesterase [3] and 0.000467 µM on Acetylcholinesterase [4]. Besides, the half-maximal effective concentration (EC50) in test [2] stood at 1.3 nM.

Turning to `CC[N+](CC)(CC)CCOc1ccc(C(=O)NCCCCCC(=O)NNc2c3c(nc4cc(Cl)ccc24)CCCC3)cc1`, the IC50 against Acetylcholinesterase [1] turned out to be 0.00544 µM; at Acetylcholinesterase [3] it was 127 nM; on Acetylcholinesterase [4], 0.026 µM. In test [2], the concentration giving a half-maximal response (EC50) amounted to 5 nM.

`CC[N+](CC)(CC)CCOc1cc(OCC[N+](CC)(CC)CC)c(C(=O)NCCCCCC(=O)NNc2c3c(nc4cc(Cl)ccc24)CCCC3)cc1OCC[N+](CC)(CC)CC`: the IC50 at Acetylcholinesterase [1] was 0.00654 µM; against Acetylcholinesterase [3], 334 nM; against Acetylcholinesterase [4] it was 0.09 µM. This molecule displayed a concentration for a half-maximal effect (EC50) in test [2] of 1 nM.

With `CC[N+](CC)(CC)CCOc1cc(OCC[N+](CC)(CC)CC)c(C(=O)NCCCCCC(=O)NNc2c3c(nc4ccccc24)CCCC3)cc1OCC[N+](CC)(CC)CC`, the EC50 in test [2] stood at 1.4 nM. Also, on Acetylcholinesterase [3], the half-maximal inhibitory concentration (IC50) was 27.7 nM.

As for `CC[N+](CC)(CC)CCOc1cc(OCC[N+](CC)(CC)CC)cc(C(=O)NCCCCCC(=O)NNc2c3c(nc4cc(Cl)ccc24)CCCC3)c1`, the results for the 50% inhibitory concentration (IC50) against Acetylcholinesterase [1], against Acetylcholinesterase [3] and against Acetylcholinesterase [4] were 0.00675 µM, 301 nM and 0.048 µM, respectively. Further, the EC50 in test [2] is 1.5 nM.

In the case of `CC[N+](CC)(CC)CCOc1cccc(OCC[N+](CC)(CC)CC)c1OCC[N+](CC)(CC)CC` [GALLAMINE], the IC50 on Acetylcholinesterase [1] stood at 2110 µM; against Acetylcholinesterase [4] it was 3150 µM. Further, the EC50 in test [2] is 130 nM.

For `CC[N+](CC)(CC)CCOc1cc(OCC[N+](CC)(CC)CC)cc(C(=O)NCCCCCC(=O)NNc2c3c(nc4ccccc24)CCCC3)c1`, the figures for the 50% inhibitory concentration (IC50) on Acetylcholinesterase [1], at Acetylcholinesterase [3] and against Acetylcholinesterase [4] were 0.0158 µM, 8.59 nM and 0.00128 µM, respectively. In addition, in test [2], the 50% effective concentration (EC50) amounted to 0.9 nM.
